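Dose response: 5 concentrations. Exposure: 48 h. Format: 96-well plates. Endpoint: linear interpolation; highest concentration if not reached. TGI is the concentration that stops growth completely.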
Legend:
Assay in all cases: growth of human tumour cells (NCI), 48 h
[1] = test system: LOX IMVI melanoma
[2] = test system: RXF 393 renal
[3] = test system: OVCAR-3 ovarian
[4] = test system: MALME-3M melanoma
[5] = test system: PC-3 prostate
[6] = test system: SN12C renal
[7] = test system: SK-MEL-2 melanoma
[8] = test system: KM12 colon
[9] = test system: MCF7 breast
[10] = test system: K-562 leukemia
[11] = test system: HL-60(TB) leukemia
[12] = test system: HOP-92 NSCLC
[13] = test system: EKVX NSCLC
[14] = test system: SK-MEL-5 melanoma
[15] = test system: A549 NSCLC
[16] = test system: NCI-H522 lung
[17] = test system: OVCAR-4 ovarian
[18] = test system: HCT-15 colon
[19] = test system: MDA-N
[20] = test system: UACC-62 melanoma
[21] = test system: OVCAR-5 ovarian
[22] = test system: OVCAR-8 ovarian
[23] = test system: 786-0 renal
[24] = test system: UACC-257 melanoma
[25] = test system: HCT-116 colon
[26] = test system: NCI-H460 lung
[27] = test system: COLO 205 colon
[28] = test system: SNB-19 CNS
[29] = test system: HCC-2998 colon
[30] = test system: U251 CNS
[31] = test system: CCRF-CEM leukemia
[32] = test system: CAKI-1 renal
[33] = test system: SK-OV-3 ovarian
[34] = test system: ACHN renal
[35] = test system: NCI/ADR-RES ovarian
[36] = test system: M14 melanoma
[37] = test system: SF-539 CNS
[38] = test system: TK-10 renal
[39] = test system: NCI-H226 lung
[40] = test system: SK-MEL-28 melanoma
[41] = test system: HT29 colon
[42] = test system: HS 578T breast
[43] = test system: A498 renal
[44] = test system: T-47D breast
[45] = test system: SW-620 colon
[46] = test system: SF-268 CNS
[47] = test system: IGROV1 ovarian
[48] = test system: UO-31 renal
[49] = test system: DU-145 prostate
[50] = test system: NCI-H23 lung
[51] = test system: MDA-MB-231 breast
[52] = test system: MDA-MB-435
[53] = test system: BT-549 breast
[54] = test system: MOLT-4 leukemia
[55] = test system: SF-295 CNS
[56] = test system: HOP-62 NSCLC
[57] = test system: SR leukemia
[58] = test system: RPMI-8226 leukemia
[59] = test system: SNB-75 CNS

`O=C(OCc1ccccc1[N+](=O)[O-])N1c2ccccc2[C@@]23O[C@]24CCC[C@H]3C#C/C=C\C#C[C@H]14` showed a TGI [1] greater than 100 µM, a TGI [2] greater than 100 µM and a TGI [3] greater than 100 µM. It also gave a TGI [4] greater than 100 µM, a TGI [5] greater than 100 µM and a TGI [6] of 68.2 µM. For the same molecule, the TGI [7] was greater than 100 µM, the TGI [8] was greater than 100 µM and the TGI [9] was greater than 100 µM. It also gave a TGI [10] greater than 100 µM, a TGI [11] of 25.9 µM and a TGI [12] greater than 100 µM. It also gave a TGI [13] greater than 100 µM, a TGI [14] greater than 100 µM and a TGI [15] greater than 100 µM. The TGI [16] was greater than 100 µM, the TGI [17] was greater than 100 µM and the TGI [18] was greater than 100 µM. The TGI [19] was greater than 100 µM, the TGI [20] was greater than 100 µM and the TGI [21] was greater than 100 µM. For the same molecule, the TGI [22] was greater than 100 µM, the TGI [23] was greater than 100 µM and the TGI [24] was greater than 100 µM. The TGI [25] was greater than 100 µM, the TGI [26] was greater than 100 µM and the TGI [27] was greater than 100 µM. For the same molecule, the TGI [28] was greater than 100 µM, the TGI [29] was greater than 100 µM and the TGI [30] was greater than 100 µM. For the same molecule, the TGI [31] was 66.6 µM, the TGI [32] was greater than 100 µM and the TGI [33] was greater than 100 µM. The TGI [34] was greater than 100 µM, the TGI [35] was greater than 100 µM and the TGI [36] was greater than 100 µM. For the same molecule, the TGI [37] was greater than 100 µM, the TGI [38] was greater than 100 µM and the TGI [39] was greater than 100 µM. For the same molecule, the TGI [40] was greater than 100 µM, the TGI [41] was greater than 100 µM and the TGI [42] was greater than 100 µM. For the same molecule, the TGI [43] was greater than 100 µM, the TGI [44] was greater than 100 µM and the TGI [45] was greater than 100 µM. For the same molecule, the TGI [46] was greater than 100 µM, the TGI [47] was greater than 100 µM and the TGI [48] was greater than 100 µM. For the same molecule, the TGI [49] was greater than 100 µM, the TGI [50] was greater than 100 µM and the TGI [51] was greater than 100 µM. For the same molecule, the TGI [52] was greater than 100 µM, the TGI [53] was greater than 100 µM and the TGI [54] was 8.11 µM. The TGI [55] was greater than 100 µM.
`O=C(O)C(C1NCCS1)N1Cc2ccccc2C1` (stereo not given) gave a TGI [1] greater than 100 µM, a TGI [2] greater than 100 µM and a TGI [3] greater than 100 µM. The TGI [4] was greater than 100 µM, the TGI [5] was greater than 100 µM and the TGI [6] was greater than 100 µM. For the same molecule, the TGI [7] was greater than 100 µM, the TGI [8] was greater than 100 µM and the TGI [9] was greater than 100 µM. The TGI [10] was greater than 100 µM, the TGI [11] was greater than 100 µM and the TGI [12] was greater than 100 µM. It also gave a TGI [56] greater than 100 µM, a TGI [13] greater than 100 µM and a TGI [14] greater than 100 µM. For the same molecule, the TGI [15] was greater than 100 µM, the TGI [17] was greater than 100 µM and the TGI [18] was greater than 100 µM. For the same molecule, the TGI [19] was greater than 100 µM, the TGI [20] was greater than 100 µM and the TGI [21] was greater than 100 µM. The TGI [57] was greater than 100 µM, the TGI [22] was greater than 100 µM and the TGI [23] was greater than 100 µM. The TGI [24] was greater than 100 µM, the TGI [25] was greater than 100 µM and the TGI [26] was greater than 100 µM. The TGI [27] was greater than 100 µM, the TGI [28] was greater than 100 µM and the TGI [30] was greater than 100 µM. It also gave a TGI [31] greater than 100 µM, a TGI [32] greater than 100 µM and a TGI [33] greater than 100 µM. It also gave a TGI [34] greater than 100 µM, a TGI [58] greater than 100 µM and a TGI [35] greater than 100 µM. For the same molecule, the TGI [36] was greater than 100 µM, the TGI [37] was greater than 100 µM and the TGI [38] was greater than 100 µM. For the same molecule, the TGI [39] was greater than 100 µM, the TGI [40] was greater than 100 µM and the TGI [41] was greater than 100 µM. It also gave a TGI [43] greater than 100 µM, a TGI [44] greater than 100 µM and a TGI [45] greater than 100 µM. For the same molecule, the TGI [47] was greater than 100 µM, the TGI [48] was greater than 100 µM and the TGI [49] was greater than 100 µM. For the same molecule, the TGI [50] was greater than 100 µM, the TGI [51] was greater than 100 µM and the TGI [52] was greater than 100 µM. It also gave a TGI [53] greater than 100 µM, a TGI [54] greater than 100 µM and a TGI [59] greater than 100 µM. For the same molecule, the TGI [55] was greater than 100 µM.
